assay: Binding affinity to beta cyclodextrin

First: O=C(O)Cc1ccccc1 [PHENYLACETIC ACID]
Second: CCc1ccccc1 [ETHYLBENZENE]
The “log Ks” value of the first is lower: 2.1 for the first, 2.59 for the second.

Going from `CCCOC/C(=N\c1ccc(Cl)cc1C(F)(F)F)n1ccnc1` [TRIFLUMIZOLE] to `CC(=O)Oc1cccc(Cl)c1`, the “log Ks” value falls from 2.66 to 2.44.

First: CCC(C)c1ccc(O)cc1 (stereo not given)
Second: CC(C)c1ccc(O)cc1
The “log Ks” value of the first is higher: 4.18 for the first, 3.58 for the second.

First: c1ccc2c(c1)Sc1ccccc1S2
Second: c1ccc2c(c1)Nc1ccccc1S2 [PHENOTHIAZINE]
The “log Ks” value of the first is higher: 3.57 for the first, 2.73 for the second.

`CC1=CC(=O)c2ccccc2C1=O` [MENADIONE] and `CC(=O)c1ccccc1` [ACETOPHENONE] are the same in “log Ks” value: 2.27 for the first, 2.27 for the second.

`Nc1ccc(S(=O)(=O)Nc2ccccn2)cc1` [SULFAPYRIDINE] and `Nc1ccc(S(=O)(=O)Nc2ncccn2)cc1` [SULFADIAZINE] are within 0.2 log units of each other in “log Ks” value: 2.7 for the first, 2.52 for the second.

`CC1(C)O[C@@H]2C[C@H]3[C@@H]4CCC5=CC(=O)C=C[C@]5(C)[C@@]4(F)[C@@H](O)C[C@]3(C)[C@]2(C(=O)CO)O1` [TRIAMCINOLONE ACETONIDE] and `CC1(C)O[C@@H]2C[C@H]3[C@@H]4C[C@H](F)C5=CC(=O)C=C[C@]5(C)[C@@]4(F)[C@@H](O)C[C@]3(C)[C@]2(C(=O)CO)O1` [FLUOCINOLONE ACETONIDE] are within 0.2 log units of each other in “log Ks” value: 3.51 for the first, 3.48 for the second.

`CC(=O)Oc1ccc(Br)cc1` and `CC(=O)Oc1ccc(C)cc1` are within 0.2 log units of each other in “log Ks” value: 2.68 for the first, 2.49 for the second.

First: CC(=O)Oc1cccc(C(C)C)c1
Second: CC(=O)Oc1ccc(C(C)C)cc1
The “log Ks” value of the first is higher: 3.36 for the first, 2.88 for the second.

Going from `CN(C)c1ccccc1` to `CNc1ccccc1`, the “log Ks” value falls from 2.36 to 2.12.

Compared with `CCCC(=O)O[C@]1(C(=O)CO)CC[C@H]2[C@@H]3CCC4=CC(=O)CC[C@]4(C)[C@H]3[C@@H](O)C[C@@]21C` [HYDROCORTISONE BUTYRATE], `CC(=O)OCC(=O)[C@@]1(O)CC[C@H]2[C@@H]3CCC4=CC(=O)CC[C@]4(C)[C@H]3[C@@H](O)C[C@@]21C` [HYDROCORTISONE ACETATE] is higher in “log Ks” value: 3.23 for the first, 3.51 for the second.

Going from `CCC1(CC)C(=O)NC(=O)NC1=O` [BARBITAL] to `CCC1(CCC(C)C)C(=O)NC(=O)NC1=O` [AMOBARBITAL], the “log Ks” value rises from 1.78 to 3.07.

First: O=C(O)CCC(=O)c1ccc(-c2ccccc2)cc1 [FENBUFEN]
Second: CC(C(=O)O)c1ccc(-c2ccccc2)c(F)c1 (stereo not given) [FLURBIPROFEN]
The “log Ks” value of the first is lower: 2.63 for the first, 3.69 for the second.

First: c1ccc2nc3ccccc3cc2c1 [ACRIDINE]
Second: c1ccc2c(c1)cnc1ccccc12 [PHENANTHRIDINE]
The “log Ks” value of the first is lower: 2.33 for the first, 2.57 for the second.

Going from `CCCC(C)O` (stereo not given) [2-PENTANOL] to `CCC(C)O` (stereo not given) [BUTANOL], the “log Ks” value falls from 1.49 to 1.19.

First: CCCCc1cccc(OC(C)=O)c1
Second: CCCc1cccc(OC(C)=O)c1
The “log Ks” value of the first is higher: 3.66 for the first, 3.28 for the second.

First: CCC(C)(O)CC
Second: CC(C)(C)O [TERT-BUTANOL]
The “log Ks” value of the first is higher: 2.15 for the first, 1.68 for the second.

`O=C(O)c1ccc(O)cc1` [PARABEN] and `CC(=O)c1ccc(O)cc1` [4-HYDROXYACETOPHENONE] are within 0.2 log units of each other in “log Ks” value: 2.2 for the first, 2.18 for the second.

Compared with `C[C@@H]1C[C@H]2[C@@H]3CCC4=CC(=O)C=C[C@]4(C)[C@@]3(F)[C@@H](O)C[C@]2(C)[C@@]1(O)C(=O)CO` [DEXAMETHASONE], `C[C@]12C=CC(=O)C=C1CC[C@H]1[C@@H]3C[C@@H](O)[C@](O)(C(=O)CO)[C@@]3(C)C[C@H](O)[C@@]12F` [TRIAMCINOLONE] is lower in “log Ks” value: 3.65 for the first, 3.37 for the second.

Going from `C[C@H](CCC(=O)O)[C@H]1CC[C@H]2[C@@H]3C(=O)C[C@@H]4CC(=O)CC[C@]4(C)[C@H]3CC(=O)[C@]12C` [DEHYDROCHOLIC ACID] to `C[C@H](CCC(=O)O)[C@H]1CC[C@H]2[C@@H]3[C@H](O)C[C@@H]4C[C@H](O)CC[C@]4(C)[C@H]3CC[C@]12C` [CHENODIOL], the “log Ks” value rises from 3.38 to 4.36.

Compared with `Oc1cc(Cl)cc(Cl)c1`, `Oc1cc(Br)cc(Br)c1` is higher in “log Ks” value: 2.07 for the first, 2.56 for the second.

`CCOc1cccc(OC(C)=O)c1` and `CCc1cccc(OC(C)=O)c1` are within 0.2 log units of each other in “log Ks” value: 2.49 for the first, 2.68 for the second.

First: CCCCOC(=O)c1ccc(O)cc1 [BUTYLPARABEN]
Second: CCCCc1ccc(O)cc1
The “log Ks” value of the first is lower: 3.39 for the first, 3.97 for the second.

Compared with `c1ccccc1` [BENZENE], `Ic1ccccc1` [IODOBENZENE] is higher in “log Ks” value: 2.23 for the first, 2.93 for the second.

`CCOc1ccccc1` [PHENETOLE] and `COc1ccccc1` [ANISOLE] are within 0.2 log units of each other in “log Ks” value: 2.49 for the first, 2.32 for the second.

Compared with `CC(=O)Oc1ccc(I)cc1`, `CC(=O)Oc1ccc(Cl)cc1` is lower in “log Ks” value: 3 for the first, 2.5 for the second.

`NS(=O)(=O)c1cc2c(cc1Cl)NCNS2(=O)=O` [HYDROCHLOROTHIAZIDE] and `NS(=O)(=O)c1cc2c(cc1C(F)(F)F)NC(Cc1ccccc1)NS2(=O)=O` (stereo not given) [BENDROFLUMETHIAZIDE] are within 0.2 log units of each other in “log Ks” value: 1.76 for the first, 1.9 for the second.

Going from `CCC(C)(C)c1ccc(O)cc1` to `COc1ccc(O)cc1` [MEQUINOL], the “log Ks” value falls from 4.7 to 2.21.

Going from `CCCCCO` [1-PENTANOL] to `CCCCCCCCO` [OCTANOL], the “log Ks” value rises from 1.8 to 3.17.

Going from `COC(=O)c1ccccc1` [METHYL BENZOATE] to `CCOC(=O)c1ccccc1` [ETHYL BENZOATE], the “log Ks” value rises from 2.5 to 2.73.

`OCCCO` [1,3-PROPANEDIOL] and `OCCCCO` [1,4-BUTANEDIOL] are within 0.2 log units of each other in “log Ks” value: 0.67 for the first, 0.64 for the second.

First: CCC(C)c1cccc(O)c1 (stereo not given)
Second: Cc1cccc(O)c1 [METACRESOL]
The “log Ks” value of the first is higher: 4.06 for the first, 1.98 for the second.

`C[C@]12C=CC(=O)C=C1CC[C@@H]1[C@@H]2[C@@H](O)C[C@@]2(C)[C@H]1CC[C@]2(O)C(=O)CO` [PREDNISOLONE] and `C[C@@H]1C[C@H]2[C@@H]3C[C@H](F)C4=CC(=O)C=C[C@]4(C)[C@H]3[C@@H](O)C[C@]2(C)[C@@]1(O)C(=O)CO` [PARAMETHASONE] are within 0.2 log units of each other in “log Ks” value: 3.56 for the first, 3.4 for the second.

Compared with `O=C(O)CC12CC3CC(CC(C3)C1)C2`, `O=C(O)CC1CC2CCC1C2` (stereo not given) is lower in “log Ks” value: 4.32 for the first, 3.59 for the second.

First: COc1cccc(O)c1 [1-hydroxy-3-methoxybenzene]
Second: Oc1cccc(F)c1
The “log Ks” value of the first is higher: 2.11 for the first, 1.7 for the second.

`OC[C@H](O)COCc1ccccc1` and `OCCc1ccccc1` [PHENYLETHYL ALCOHOL] are within 0.2 log units of each other in “log Ks” value: 2.11 for the first, 2.15 for the second.

Compared with `CC(C)CCO` [3-METHYLBUTANOL], `CC(C)CC(C)O` (stereo not given) is lower in “log Ks” value: 2.25 for the first, 2.04 for the second.

First: CCCCCc1ccc(OC(C)=O)cc1
Second: COc1ccc(OC(C)=O)cc1
The “log Ks” value of the first is higher: 3.8 for the first, 2.45 for the second.

Compared with `c1ccc2ncccc2c1` [QUINOLINE], `c1ccc2sccc2c1` [BENZOTHIOPHENE] is higher in “log Ks” value: 2.12 for the first, 3.23 for the second.

Compared with `CCC1(C2=CCCCC2)C(=O)NC(=O)NC1=O` [CYCLOBARBITAL], `CCCC(C)C1(CC)C(=O)NC(=O)NC1=O` (stereo not given) [PENTOBARBITAL] is higher in “log Ks” value: 2.71 for the first, 3.01 for the second.

Compared with `Brc1ccc(Br)cc1`, `Oc1ccc(F)cc1` is lower in “log Ks” value: 2.97 for the first, 1.73 for the second.

Compared with `CCC(=O)c1cccc(O)c1`, `CCCCc1cccc(O)c1` is higher in “log Ks” value: 2.61 for the first, 3.76 for the second.

Going from `OC1CCCCC1` [CYCLOHEXANOL] to `OC1CCCCCCC1` [CYCLOOCTANOL], the “log Ks” value rises from 2.67 to 3.3.

Going from `O=C(O)c1ccccc1Nc1ccccc1` [FENAMIC ACID] to `Cc1cccc(Nc2ccccc2C(=O)O)c1C` [MEFENAMIC ACID], the “log Ks” value falls from 2.89 to 2.49.

`CCCCC[C@H](O)/C=C/[C@@H]1[C@H]2C/C(=C/CCCC(=O)O)O[C@H]2C[C@H]1O` [EPOPROSTENOL] and `CCCCC[C@H](O)/C=C/[C@H]1[C@H](O)CC(=O)[C@@H]1C/C=C\CCCC(=O)O` [DINOPROSTONE] are within 0.2 log units of each other in “log Ks” value: 2.94 for the first, 3.09 for the second.

First: CC(=O)Oc1cccc(C)c1
Second: CC(=O)Oc1cccc(Br)c1
The “log Ks” value of the first is lower: 2.21 for the first, 2.67 for the second.

`Nc1ccc([N+](=O)[O-])cc1` [4-NITROANILINE] and `O=[N+]([O-])c1ccc(O)cc1` [P-NITROPHENOL] are within 0.2 log units of each other in “log Ks” value: 2.48 for the first, 2.39 for the second.

Compared with `Oc1cccc(I)c1`, `O=C(O)/C=C/c1cccc(O)c1` is lower in “log Ks” value: 2.93 for the first, 2.56 for the second.

Going from `CC(=O)Oc1ccc(C(C)(C)C)cc1` to `CC(=O)Oc1cccc(F)c1`, the “log Ks” value falls from 3.85 to 1.91.

First: Nc1ccc(-c2ccc(N)cc2)cc1 [BENZIDINE]
Second: COc1cc(NS(=O)(=O)c2ccc(N)cc2)ncn1 [SULFAMONOMETHOXINE]
The “log Ks” value of the first is higher: 3.35 for the first, 2.48 for the second.

Compared with `C=CCC1(CC=C)C(=O)NC(=O)NC1=O` [ALLOBARBITAL], `CCCC(C)C1(CC)C(=O)NC(=S)NC1=O` (stereo not given) [THIOPENTAL] is higher in “log Ks” value: 1.98 for the first, 3.28 for the second.

Compared with `Fc1ccccc1` [FLUOROBENZENE], `Nc1ccccc1` [ANILINE] is lower in “log Ks” value: 1.96 for the first, 1.6 for the second.

First: COC1=CC(=O)C[C@@H](C)[C@]12Oc1c(Cl)c(OC)cc(OC)c1C2=O [GRISEOFULVIN]
Second: CC(=O)S[C@@H]1CC2=CC(=O)CC[C@]2(C)[C@H]2CC[C@@]3(C)[C@@H](CC[C@@]34CCC(=O)O4)[C@H]12 [SPIRONOLACTONE]
The “log Ks” value of the first is lower: 1.47 for the first, 4.44 for the second.

Compared with `ClC(Cl)Cl` [CHLOROFORM], `Cc1ccc(Cl)c(Nc2ccccc2C(=O)O)c1Cl` [MECLOFENAMIC ACID] is higher in “log Ks” value: 1.43 for the first, 2.67 for the second.

First: C#Cc1ccccc1
Second: O=Cc1ccccc1 [BENZALDEHYDE]
The “log Ks” value of the first is higher: 2.36 for the first, 1.78 for the second.

Going from `CC=O` to `CCNCC` [DIETHYLAMINE], the “log Ks” value rises from -0.64 to 1.36.

Going from `OCc1ccc(O)cc1` [PARAHYDROXYBENZYL ALCOHOL] to `O=C(O)/C=C/c1ccc(O)cc1` [COUMARIC ACID], the “log Ks” value rises from 2.16 to 2.83.

`CCNc1ccccc1` and `c1ccc2scnc2c1` [BENZO[D]THIAZOLE] are within 0.2 log units of each other in “log Ks” value: 2.34 for the first, 2.38 for the second.

First: C[C@H](CCC(=O)O)[C@H]1CC[C@H]2[C@@H]3[C@@H](O)C[C@@H]4C[C@H](O)CC[C@]4(C)[C@H]3CC[C@]12C [URSODIOL]
Second: CC(=O)c1ccc(S(=O)(=O)NC(=O)NC2CCCCC2)cc1 [ACETOHEXAMIDE]
The “log Ks” value of the first is higher: 4.51 for the first, 2.94 for the second.

Going from `COc1cc(O)cc(OC)c1` to `CC(=O)Oc1cccc(C#N)c1`, the “log Ks” value falls from 2.34 to 1.49.

Compared with `OCCO` [ETHYLENE GLYCOL], `O=C(O)c1ccc([N+](=O)[O-])cc1` [4-NITROBENZOIC ACID] is higher in “log Ks” value: -0.19 for the first, 2.34 for the second.

First: Cc1ccc(/C=C/C(=O)O)cc1
Second: Cc1ccc(C)cc1 [P-XYLENE]
The “log Ks” value of the first is higher: 2.65 for the first, 2.38 for the second.

With `c1ccc2c(c1)sc1ccccc12` [DIBENZOTHIOPHENE] the “log Ks” value was 3.48.

— ChEMBL document CHEMBL1140846, “Convenient QSAR model for predicting the complexation of structurally diverse compounds with beta-cyclodextrins” (Bioorg Med Chem, 2009)
